Assay [1] concerns the target T1, GST-tagged TRPM6-(1730–end) (Homo sapiens, UniProt Q9BX84).
T1 construct: E. coli-purified GST-tagged TRPM6-(1730–end); made in house; host or cells: E. coli BL21
T1 sequence (Q9BX84 1730-2022 limits assumed): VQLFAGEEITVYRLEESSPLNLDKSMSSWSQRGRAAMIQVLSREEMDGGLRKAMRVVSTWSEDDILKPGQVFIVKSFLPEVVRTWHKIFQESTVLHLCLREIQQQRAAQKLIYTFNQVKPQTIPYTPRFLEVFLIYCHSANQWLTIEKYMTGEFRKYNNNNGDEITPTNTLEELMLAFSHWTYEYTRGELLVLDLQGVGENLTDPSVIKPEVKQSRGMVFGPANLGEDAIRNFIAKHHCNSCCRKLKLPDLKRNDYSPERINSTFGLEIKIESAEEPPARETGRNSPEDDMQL
The assay can be described thus: Peptide pull-down, TRPM6-(1730–end). The class given is binding. Conditions: HEK-293 lysate 1–5 mg, 3 μg biotinylated peptide, 10 min at 4°C, streptavidin beads; anti-GST immunoblot. How it is done: (§1) The peptides biotin-C6-[…]-TIPFTPVQLFAGEEITV (wild-type) and biotin-C6-LKSPQE-[…] (mutant) were purchased from GL Biochem. For a peptide pull-down, 1–5 mg of lysate was incubated with 3 μg of the respective peptide for 10 min at 4°C under gentle agitation, followed by 5 min of incubation with 10–20 μl of streptavidin beads at 4°C. The immunoprecipitates were washed three times with lysis buffer containing 0.15 M NaCl and then twice with buffer A. Proteins were eluted by resuspending washed immunoprecipitates in 30 μl of SDS sample buffer.
(Figure 2A). We next utilized fluorescence polarization technology, a sensitive method to evaluate interactions between proteins and peptides. Using this methodology, we first evaluated how polarization of a fluorescently labelled peptide encompassing the dimerization motif was affected by titration of TRPM6-(1730–end) (which lacks the dimerization motif). […]
Figure 2 Identification of dimerization motif residues in TRPM6 (A) Structural model of TRPM7 α-kinase depicting the N-terminal non-catalytic α-helix of one monomer that interacts with the kinase segment of the other monomer. (B) Fluorescence polarization analysis of wild-type (WT) and mutant (Mut) dimerization motif peptides with E. coli-purified GST-tagged TRPM6-(1730–end). […] The samples were analysed by immunoblotting with anti-GST antibody (top panel). […]
A general note: Immunoblotting shows a protein as a band on a membrane.

Assay [2] deals with GST-tagged TRPM6-(1730–end) L1743A. Nature of the assay: Peptide pull-down, L1743A mutant. The class given is binding, human. Conditions: HEK-293 lysate, 3 μg peptide, 4°C, anti-GST immunoblot. How it is done: (§2) The peptides biotin-C6-[…]-TIPFTPVQLFAGEEITV (wild-type) and biotin-C6-LKSPQE-[…] (mutant) were purchased from GL Biochem. For a peptide pull-down, 1–5 mg of lysate was incubated with 3 μg of the respective peptide for 10 min at 4°C under gentle agitation, followed by 5 min of incubation with 10–20 μl of streptavidin beads at 4°C. The immunoprecipitates were washed three times with lysis buffer containing 0.15 M NaCl and then twice with buffer A. Proteins were eluted by resuspending washed immunoprecipitates in 30 μl of SDS sample buffer. […]
(§3) Figure 3 Analysis of the dimerization pocket residues (A) Structural model of TRPM6 based on TRPM7 α-kinase depicting the binding of Leu^1718 and Leu^1721 to other residues in the α-kinase domain. […] The samples were analysed by immunoblotting with anti-GST antibody (top panel). […] (C) Fluorescence polarization analysis of the dimerization motif peptide with E. coli purified GST-tagged TRPM6-(1730–end) and indicated mutants. […] Proteins were separated by SDS/PAGE, stained with Coomassie Blue (top and middle panels) and MBP phosphorylation was detected by autoradiography (bottom panel). […] Proteins were separated by SDS/PAGE, stained with Coomassie Blue (top and middle gels) and MBP phosphorylation was detected by autoradiography (bottom gel). […]

Assay [3] relates to GST-tagged TRPM6-(1730–end) Q1832K. The assay can be described thus: Peptide pull-down, Q1832K mutant. The assay is classed as binding, human. Conditions: HEK-293 lysate, 3 μg peptide, 4°C, anti-GST immunoblot. How it is done: as §2, §3
The test system of assay [4] is GST-tagged TRPM6-(1730–end) L1840A. Nature of the assay: Peptide pull-down, L1840A mutant. The class given is binding, human. Conditions: HEK-293 lysate, 3 μg peptide, 4°C, anti-GST immunoblot. How it is done:
as §2, §3

Assay [5] has as its system full-length FLAG-tagged wild-type TRPM6. Nature of the assay: Peptide pull-down, full-length wild-type TRPM6. The class given is binding, human. Conditions: full-length wild-type TRPM6, HEK-293 lysate, 3 μg peptide, 4°C; anti-FLAG immunoblot. How it is done:
as §1
Figure 2 Identification of dimerization motif residues in TRPM6 (A) Structural model of TRPM7 α-kinase depicting the N-terminal non-catalytic α-helix of one monomer that interacts with the kinase segment of the other monomer. (B) Fluorescence polarization analysis of wild-type (WT) and mutant (Mut) dimerization motif peptides with E. coli-purified GST-tagged TRPM6-(1730–end). […] The samples were analysed by immunoblotting with anti-GST antibody (top panel). […] Proteins were separated by SDS/PAGE, stained with Coomassie Blue (top and middle gels) and MBP phosphorylation was detected by autoradiography (bottom gel). […] Proteins were separated by SDS/PAGE, stained with Coomassie Blue (top and middle gels) and MBP phosphorylation was detected by autoradiography (bottom gel). […] The pull-down samples were analysed by immunoblotting with anti-FLAG antibody (top panel). […]

For “biotin-C6-LKSPQEPHHHYSAIERNNLMRLSQ-TIPFTPVQLFAGEEITV [biotinylated dimerization motif peptide, biotin-C6 wild-type dimerization motif peptide; conjugated to streptavidin–Sepharose]”, in assay [1], the “affinity purification of TRPM6-(1730–end) (pull-down)” value is “could efficiently purify TRPM6-(1730–end)”. Further, the “binding to biotinylated dimerization motif peptide (pull-down)” value in assay [2], in assay [3] and in assay [4] was “abolished binding to the peptide” throughout. Besides, the “interaction with biotinylated dimerization motif peptide (pull-down)” value in assay [5] is listed as “do not interact”.

These data come from paper PMC4019984, “Kinase and channel activity of TRPM6 are co-ordinated by a dimerization motif and pocket interaction” (Biochemical Journal, 2014).
